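GI50: concentration for 50% inhibition of growth. At the TGI there is no net growth.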
Columns and labels:
Assay in all cases: growth of human tumour cells (NCI), 384-well format
[1] = system: SF-539 CNS
[2] = system: NCI-H322M lung
[3] = system: MDA-MB-468 breast
[4] = system: IGROV1 ovarian
[5] = system: MALME-3M melanoma
[6] = system: NCI-H460 NSCLC
[7] = system: OVCAR-5 ovarian
[8] = system: SF-295 CNS
[9] = system: HT29 colon
[10] = system: SNB-75 CNS
[11] = system: HOP-92 NSCLC
[12] = system: A498 renal
[13] = system: HL-60(TB) leukemia
[14] = system: NCI/ADR-RES ovarian
[15] = system: UACC-62 melanoma
[16] = system: A549 NSCLC
[17] = system: MDA-MB-435 melanoma
[18] = system: EKVX NSCLC
[19] = system: KM12 colon
[20] = system: MCF7 breast
[21] = system: SR leukemia
[22] = system: RXF 393 renal
[23] = system: SF-268 CNS
[24] = system: BT-549 breast
[25] = system: LOX IMVI melanoma
[26] = system: U251 glioblastoma
[27] = system: SNB-19 CNS
[28] = system: T-47D breast
[29] = system: 786-0 renal
[30] = system: OVCAR-4 ovarian
[31] = system: DU-145 prostate
[32] = system: SK-MEL-28 melanoma
[33] = system: SK-MEL-5 melanoma
[34] = system: HOP-62 NSCLC
[35] = system: NCI-H522 lung
[36] = system: SW-620 colon
[37] = system: NCI-H226 lung
[38] = system: CAKI-1 renal
[39] = system: PC-3 prostate
[40] = system: HCT-15 colon
[41] = system: UO-31 renal
[42] = system: OVCAR-8 ovarian
[43] = system: SK-OV-3 ovarian
[44] = system: RPMI-8226 leukemia
[45] = system: UACC-257 melanoma
[46] = system: NCI-H23 lung
[47] = system: CCRF-CEM leukemia

## CC(C)(O)CNc1nc(Nc2ccnc(C(F)(F)F)c2)nc(-c2cccc(C(F)(F)F)n2)n1
[1]
  GI50: 16.3 µM
  TGI: 30.9 µM
[2]
  GI50: 16.1 µM
  TGI: 31.4 µM
[3]
  GI50: 20.3 µM
  TGI: 35 µM
[4]
  GI50: 18.6 µM
  TGI: 37.4 µM
[5]
  GI50: 18.4 µM
  TGI: 33.9 µM
[6]
  GI50: 17.5 µM
  TGI: 32.6 µM
[7]
  GI50: 27.3 µM
  TGI: 73.5 µM
[8]
  GI50: 16 µM
  TGI: 29.8 µM
[9]
  GI50: 15.2 µM
  TGI: 29.6 µM
[10]
  GI50: 18.8 µM
  TGI: 37.2 µM
[11]
  GI50: 19.3 µM
  TGI: 37.7 µM
[12]
  GI50: 19.9 µM
  TGI: 39.9 µM
[13]
  GI50: 14.9 µM
  TGI: 28.3 µM
[14]
  GI50: 13.9 µM
  TGI: 27.5 µM
[15]
  GI50: 17.8 µM
  TGI: 31.8 µM
[16]
  GI50: 17.3 µM
  TGI: 35.4 µM
[17]
  GI50: 19.9 µM
  TGI: 37.7 µM
[18]
  GI50: 19 µM
  TGI: 38.5 µM
[19]
  GI50: 17.9 µM
  TGI: 34.8 µM
[20]
  GI50: 15.9 µM
  TGI: 30.5 µM
[21]
  GI50: 4.82 µM
  TGI: 17.5 µM
[22]
  GI50: 12.3 µM
  TGI: 27.5 µM
[23]
  GI50: 20.2 µM
  TGI: 40.3 µM
[24]
  GI50: 16 µM
  TGI: 29.7 µM
[25]
  GI50: 10.7 µM
  TGI: 25.1 µM
[26]
  GI50: 18.8 µM
  TGI: 38.7 µM
[27]
  GI50: 32.3 µM
  TGI: 87.2 µM
[28]
  GI50: 9.87 µM
  TGI: 23 µM
[29]
  GI50: 17.4 µM
  TGI: 37.6 µM
[30]
  GI50: 19.7 µM
  TGI: 36.3 µM
[31]
  GI50: 16.3 µM
  TGI: 31.6 µM
[32]
  GI50: 16.9 µM
  TGI: 31 µM
[33]
  GI50: 13.8 µM
  TGI: 26.8 µM
[34]
  GI50: 15.1 µM
  TGI: 28.8 µM
[35]
  GI50: 17.5 µM
  TGI: 35.4 µM
[36]
  GI50: 24.4 µM
  TGI: 55.2 µM
[37]
  GI50: 16.2 µM
  TGI: 31.7 µM
[38]
  GI50: 21.3 µM
  TGI: 45.2 µM
[39]
  GI50: 18.2 µM
  TGI: 33.9 µM
[40]
  GI50: 13.5 µM
  TGI: 28.1 µM
[41]
  GI50: 21.1 µM
  TGI: 40.9 µM
[42]
  GI50: 17.4 µM
  TGI: 38.3 µM
[43]
  GI50: 20.9 µM
  TGI: 40.9 µM
[44]
  GI50: 18.7 µM
  TGI: 32.9 µM
[45]
  GI50: 19.4 µM
  TGI: 33.8 µM
[46]
  GI50: 18.7 µM
  TGI: 35.6 µM
[47]
  GI50: 14.4 µM
  TGI: 28.1 µM
